Calls of active or inactive are those of the source. No cut-off for these calls is given here.
Columns and labels:
NCI-H446 [1] = assay: Induction of DNA damage in human NCI-H446 cells assessed as increase in intracellular gamma-H2AX level at 2 to 8 uM incubated for 48 hrs by Western blotting analysis; type: functional, cell-based; conditions: dose 2-8 µM
NCI-H446 [2] = assay: Induction of apoptosis in human NCI-H446 cells at 8 uM incubated for 48 hrs by Annexin V-FITC/PI staining based flow cytometry relative to control; type: functional
DU-145 = assay: Antiproliferative activity against human DU-145 cells assessed as inhibition of cell growth incubated for 96 hrs by MTT based ELISA; type: functional; conditions: DU-145, 96 h
[3] = Toxicity in Kunming mouse assessed as change in body weight at 100 mg/kg,po administration for 2 weeks; type: organism-based; conditions: in vivo, 336 h
[4] = Toxicity in Kunming mouse assessed as change in organ coefficient of lung at 100 mg/kg,po administration for 2 weeks; type: organism-based; conditions: in vivo, 336 h
[5] = target: T1, DNA topoisomerase 1 (Homo sapiens) (UniProt P11387); assay: Inhibition of Topoisomerase I (unknown origin) using pBR322 DNA as substrate at 50 uM incubated for 15 mins by EtBr staining based agarose gel electrophoresis method
T1 sequence (whole entry): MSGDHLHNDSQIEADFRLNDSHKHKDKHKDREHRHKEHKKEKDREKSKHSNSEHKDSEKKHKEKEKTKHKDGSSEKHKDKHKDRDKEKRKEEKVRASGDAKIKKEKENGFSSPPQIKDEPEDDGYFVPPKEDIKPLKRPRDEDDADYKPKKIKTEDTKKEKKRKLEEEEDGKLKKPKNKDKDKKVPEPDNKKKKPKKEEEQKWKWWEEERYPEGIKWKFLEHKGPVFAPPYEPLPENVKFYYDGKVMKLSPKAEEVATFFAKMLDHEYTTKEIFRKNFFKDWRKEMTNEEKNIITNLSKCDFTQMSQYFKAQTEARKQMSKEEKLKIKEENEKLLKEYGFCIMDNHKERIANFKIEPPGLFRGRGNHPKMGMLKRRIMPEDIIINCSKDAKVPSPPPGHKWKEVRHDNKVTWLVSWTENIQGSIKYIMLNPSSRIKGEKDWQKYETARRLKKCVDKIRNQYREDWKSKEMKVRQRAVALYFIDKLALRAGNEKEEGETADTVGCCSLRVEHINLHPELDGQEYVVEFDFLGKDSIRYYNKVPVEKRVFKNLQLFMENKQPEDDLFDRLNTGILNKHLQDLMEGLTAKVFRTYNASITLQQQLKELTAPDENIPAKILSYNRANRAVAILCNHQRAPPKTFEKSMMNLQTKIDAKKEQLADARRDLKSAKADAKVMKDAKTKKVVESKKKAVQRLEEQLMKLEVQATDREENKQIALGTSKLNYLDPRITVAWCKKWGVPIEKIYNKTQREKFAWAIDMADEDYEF

[6] = AUC (0 to infinity) in ICR mouse at 10 mg/kg,po measured upto 24 hrs by LC-MS/MS analysis; type: ADME, organism-based; conditions: in vivo
NCI-H446 [7] = assay: Antiproliferative activity against human NCI-H446 cells assessed as inhibition of cell growth incubated for 96 hrs by MTT based ELISA; type: functional; conditions: NCI-H446, 96 h
NCI-H446 [8] = assay: Induction of cell cycle arrest in human NCI-H446 cells assessed as accumulation of cells at G2/M phase at 2 uM incubated for 48 hrs by propidium iodide/RNase A staining based flow cytometry relative to control; type: functional
PC-9 = assay: Antiproliferative activity against human PC-9 cells assessed as inhibition of cell growth incubated for 96 hrs by MTT based ELISA; type: functional; conditions: PC-9, 96 h
MDA-MB-231 = assay: Antiproliferative activity against human MDA-MB-231 cells assessed as inhibition of cell growth incubated for 96 hrs by MTT based ELISA; type: functional; conditions: MDA-MB-231, 96 h
NCI-H446 [9] = assay: Induction of DNA damage in human NCI-H446 cells assessed as tail DNA at 8 uM incubated for 48 hrs by comet assay relative to control; type: functional
Huh-7 = assay: Antiproliferative activity against human Huh-7 cells assessed as inhibition of cell growth incubated for 96 hrs by MTT based ELISA; type: functional; conditions: Huh-7, 96 h
NCI-H446 [10] = assay: Induction of cell cycle arrest in human NCI-H446 cells assessed as accumulation of cells at G2/M phase at 1 to 2 uM incubated for 48 hrs by propidium iodide/RNase A staining based flow cytometry; type: functional; conditions: dose 1-2 µM
[11] = target: DNA topoisomerase 2-alpha (Homo sapiens) (UniProt P11388); assay: Inhibition of Topoisomerase 2 (unknown origin) using pBR322 DNA as substrate at 0.5 uM incubated for 15 mins by EtBr staining based agarose gel electrophoresis method
NCI-H1975 = assay: Antiproliferative activity against human NCI-H1975 cells assessed as inhibition of cell growth incubated for 96 hrs by MTT based ELISA; type: functional; conditions: NCI-H1975, 96 h
[12] = target: T1, DNA topoisomerase 1 (Homo sapiens); assay: Inhibition of Topoisomerase I (unknown origin) using pBR322 DNA as substrate at 200 uM incubated for 15 mins by EtBr staining based agarose gel electrophoresis method relative to control
[13] = Toxicity in Kunming mouse assessed as change in serum blood urea nitrogen level at 100 mg/kg,po administration for 2 weeks; type: organism-based; conditions: in vivo, 336 h
NCI-H446 [14] = assay: Inhibition of colony formation in human NCI-H446 cells at 2 uM incubated for 24 hrs by crystal violet staining based analysis relative to control; type: functional
[15] = target: DNA topoisomerase 2-alpha (Homo sapiens) (UniProt P11388); assay: Inhibition of Topoisomerase 2 (unknown origin) using pBR322 DNA as substrate at 10 uM incubated for 15 mins by EtBr staining based agarose gel electrophoresis method
NCI-H446 [16] = assay: Induction of cell cycle arrest in human NCI-H446 cells assessed as accumulation of cells at S phase at 1 to 2 uM incubated for 48 hrs by propidium iodide/RNase A staining based flow cytometry; type: functional; conditions: dose 1-2 µM
[17] = Toxicity in Kunming mouse assessed as morphological change in heart at 100 mg/kg,po administration for 2 weeks; type: organism-based; conditions: in vivo, 336 h
HCT-116 = assay: Antiproliferative activity against human HCT-116 cells assessed as inhibition of cell growth incubated for 96 hrs by MTT based ELISA; type: functional; conditions: HCT-116, 96 h
[18] = MRT (0 to t) in ICR mouse at 10 mg/kg,po measured upto 24 hrs by LC-MS/MS analysis; type: ADME, organism-based; conditions: in vivo
Cell membrane = assay: Induction of mitochondrial membrane potential loss in human NCI-H446 cells at 8 uM incubated for 24 hrs by JC-1 staining based flow cytometry; type: cell membranes
[19] = MRT (0 to infinity) in ICR mouse at 10 mg/kg,po measured upto 24 hrs by LC-MS/MS analysis; type: ADME, organism-based; conditions: in vivo
NCI-H446 [20] = assay: Inhibition of cell migration in human NCI-H446 cells at 2 uM incubated for 48 hrs by phase-contrast microscopic analysis relative to control; type: functional
[21] = AUC (0 to t) in ICR mouse at 10 mg/kg,po measured upto 24 hrs by LC-MS/MS analysis; type: ADME, organism-based; conditions: in vivo
[22] = Toxicity in Kunming mouse assessed as morphological change in liver at 100 mg/kg,po administration for 2 weeks; type: organism-based; conditions: in vivo, 336 h

Sequence of DNA topoisomerase 2-alpha (Homo sapiens) (P11388 whole entry): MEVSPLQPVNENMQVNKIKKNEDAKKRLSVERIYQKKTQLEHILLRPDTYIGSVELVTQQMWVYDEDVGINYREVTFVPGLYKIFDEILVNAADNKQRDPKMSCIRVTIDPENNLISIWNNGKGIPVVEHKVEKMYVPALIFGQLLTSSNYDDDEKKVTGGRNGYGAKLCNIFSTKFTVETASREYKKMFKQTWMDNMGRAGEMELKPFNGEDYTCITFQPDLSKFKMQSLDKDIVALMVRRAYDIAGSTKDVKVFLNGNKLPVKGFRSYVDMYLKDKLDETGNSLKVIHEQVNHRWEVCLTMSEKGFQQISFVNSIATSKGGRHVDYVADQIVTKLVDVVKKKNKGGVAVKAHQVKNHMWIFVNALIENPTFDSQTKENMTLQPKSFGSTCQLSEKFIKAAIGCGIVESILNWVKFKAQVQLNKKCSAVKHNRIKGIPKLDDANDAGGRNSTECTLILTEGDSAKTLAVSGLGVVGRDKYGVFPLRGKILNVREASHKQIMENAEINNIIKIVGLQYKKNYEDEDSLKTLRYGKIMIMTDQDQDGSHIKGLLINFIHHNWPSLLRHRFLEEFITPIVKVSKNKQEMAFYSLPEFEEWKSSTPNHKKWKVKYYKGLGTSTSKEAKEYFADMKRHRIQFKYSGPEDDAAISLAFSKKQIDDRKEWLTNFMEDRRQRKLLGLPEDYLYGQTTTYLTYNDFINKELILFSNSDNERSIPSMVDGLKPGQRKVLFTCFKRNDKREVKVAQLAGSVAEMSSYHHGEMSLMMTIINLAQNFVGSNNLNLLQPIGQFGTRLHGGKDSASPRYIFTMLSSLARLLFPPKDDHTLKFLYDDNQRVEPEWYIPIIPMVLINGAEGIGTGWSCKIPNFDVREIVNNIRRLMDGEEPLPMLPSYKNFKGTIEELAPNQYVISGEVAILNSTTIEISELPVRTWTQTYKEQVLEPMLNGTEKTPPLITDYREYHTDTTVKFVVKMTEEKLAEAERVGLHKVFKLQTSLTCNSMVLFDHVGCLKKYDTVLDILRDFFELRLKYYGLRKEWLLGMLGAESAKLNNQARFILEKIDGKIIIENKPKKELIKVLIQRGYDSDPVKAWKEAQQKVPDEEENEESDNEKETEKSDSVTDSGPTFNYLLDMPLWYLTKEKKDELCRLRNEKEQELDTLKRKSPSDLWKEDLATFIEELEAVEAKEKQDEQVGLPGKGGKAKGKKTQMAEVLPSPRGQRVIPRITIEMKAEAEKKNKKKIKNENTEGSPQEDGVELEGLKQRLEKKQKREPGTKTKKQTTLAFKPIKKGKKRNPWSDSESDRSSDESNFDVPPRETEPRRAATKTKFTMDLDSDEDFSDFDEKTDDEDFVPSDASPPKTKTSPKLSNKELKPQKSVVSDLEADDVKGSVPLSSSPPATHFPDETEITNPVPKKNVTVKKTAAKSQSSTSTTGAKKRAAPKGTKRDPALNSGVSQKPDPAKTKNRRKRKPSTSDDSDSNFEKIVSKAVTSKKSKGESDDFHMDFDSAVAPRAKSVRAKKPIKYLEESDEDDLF

COc1ccc2c(c1)c1ncc3ccccc3c1n2CCCC(=O)NO
Activity (NCI-H446 [1]): Active | Activity (NCI-H446 [2]): 77.5% | IC50 (DU-145): 860 nM | Activity [3]: Non-Toxic | Activity [4]: Non-Toxic | inhibition [5]: Active | AUC(0-inf) [6]: 267 ng·h/mL | IC50 (NCI-H446 [7]): 120 nM | Activity (NCI-H446 [8]): 60.3% | IC50 (PC-9): 1260 nM | IC50 (MDA-MB-231): 550 nM | Activity (NCI-H446 [9]): 54.8% | IC50 (Huh-7): 2500 nM | Activity (NCI-H446 [10]): Active | inhibition [11]: Active | IC50 (NCI-H1975): 960 nM | inhibition [12]: > 95% | Activity [13]: Non-Toxic | inhibition at 2 µM (NCI-H446 [14]): > 90% | inhibition [15]: Active | Activity (NCI-H446 [16]): Active | Activity [17]: Non-Toxic | IC50 (HCT-116): 530 nM | MRT last at 24 h [18]: 1.35 h | Activity (Cell membrane): Active | MRT inf [19]: 1.72 h | inhibition at 2 µM (NCI-H446 [20]): 73.2% | AUC(0-t) at 24 h [21]: 244 ng·h/mL | Activity [22]: Non-Toxic

CN(C)CCCn1c2cc3c(cc2c2ncc4ccccc4c21)OCO3
Activity (NCI-H446 [1]): Active | Activity (NCI-H446 [2]): 95.3% | IC50 (DU-145): 520 nM | Activity [3]: Non-Toxic | Activity [4]: Non-Toxic | inhibition [5]: Active | AUC(0-inf) [6]: 2040 ng·h/mL | IC50 (NCI-H446 [7]): 90 nM | Activity (NCI-H446 [8]): 61.1% | IC50 (PC-9): 760 nM | IC50 (MDA-MB-231): 290 nM | Activity (NCI-H446 [9]): 65.4% | IC50 (Huh-7): 830 nM | Activity (NCI-H446 [10]): Active | inhibition [11]: Active | IC50 (NCI-H1975): 740 nM | inhibition [12]: > 95% | Activity [13]: Non-Toxic | inhibition at 2 µM (NCI-H446 [14]): > 90% | inhibition [15]: Active | Activity (NCI-H446 [16]): Active | Activity [17]: Non-Toxic | IC50 (HCT-116): 210 nM | MRT last at 24 h [18]: 5 h | Activity (Cell membrane): Active | MRT inf [19]: 5 h | inhibition at 2 µM (NCI-H446 [20]): 77.1% | AUC(0-t) at 24 h [21]: 2040 ng·h/mL | Activity [22]: Non-Toxic
